Data: ChEMBL document CHEMBL1201862, “PubChem BioAssay data set” (2004)
Active and inactive are the calls of the source. Bridge positions count the residues as written; N and C are the ends. Square brackets hold non-standard residues; d marks the D form. Peptide text beside a SMILES is read from it. * marks the point of attachment. X1 = CCC(C)C(N)C1=NC(C(=O)*)CS1; dOrn = NCCC[C@@H](N)C(=O)O

Experiments:
[1] = target: Voltage-gated inwardly rectifying potassium channel KCNH2 (Homo sapiens, UniProt Q12809); conditions: Potency;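 further: confirmatory quantitative high-throughput screen measuring inhibition of hERG channel activity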
Sequence of Voltage-gated inwardly rectifying potassium channel KCNH2 (Q12809 whole entry): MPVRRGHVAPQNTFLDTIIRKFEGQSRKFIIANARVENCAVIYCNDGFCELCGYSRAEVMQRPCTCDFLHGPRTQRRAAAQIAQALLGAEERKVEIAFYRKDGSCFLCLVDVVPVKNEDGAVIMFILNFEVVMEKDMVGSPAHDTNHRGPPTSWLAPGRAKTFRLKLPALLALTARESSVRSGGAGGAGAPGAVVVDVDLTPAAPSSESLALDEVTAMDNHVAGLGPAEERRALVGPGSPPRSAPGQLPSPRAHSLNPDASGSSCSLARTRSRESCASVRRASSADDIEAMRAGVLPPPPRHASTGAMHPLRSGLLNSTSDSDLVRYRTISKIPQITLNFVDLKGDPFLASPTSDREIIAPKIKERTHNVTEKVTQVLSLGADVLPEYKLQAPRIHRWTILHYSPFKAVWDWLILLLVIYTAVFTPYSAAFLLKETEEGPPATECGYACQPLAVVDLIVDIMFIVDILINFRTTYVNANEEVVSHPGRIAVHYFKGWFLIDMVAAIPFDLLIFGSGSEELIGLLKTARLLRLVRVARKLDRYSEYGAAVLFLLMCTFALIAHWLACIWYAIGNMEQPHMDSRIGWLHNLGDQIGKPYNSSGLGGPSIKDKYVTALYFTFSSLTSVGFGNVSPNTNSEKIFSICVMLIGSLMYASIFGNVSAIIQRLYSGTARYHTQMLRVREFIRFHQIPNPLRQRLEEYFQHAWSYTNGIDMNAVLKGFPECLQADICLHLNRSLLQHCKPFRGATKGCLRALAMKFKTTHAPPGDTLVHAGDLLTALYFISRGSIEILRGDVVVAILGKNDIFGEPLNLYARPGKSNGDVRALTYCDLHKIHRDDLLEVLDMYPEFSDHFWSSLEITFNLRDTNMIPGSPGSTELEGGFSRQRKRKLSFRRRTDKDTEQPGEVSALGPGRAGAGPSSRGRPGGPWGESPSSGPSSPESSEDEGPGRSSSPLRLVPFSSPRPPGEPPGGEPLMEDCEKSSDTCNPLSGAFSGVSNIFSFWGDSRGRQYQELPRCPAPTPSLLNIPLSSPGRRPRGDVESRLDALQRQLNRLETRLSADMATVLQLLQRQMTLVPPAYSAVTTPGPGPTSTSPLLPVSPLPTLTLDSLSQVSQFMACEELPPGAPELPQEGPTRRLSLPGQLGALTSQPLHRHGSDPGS

[2] = target: Protein Wnt-3a (Mus musculus, UniProt P27467); assay: antagonism of Wnt3a pathway luciferase reporter – Wnt-LIGHT cells, luminescence, selectivity assay for Gli-SUFU antagonist project, dose response (AID 651570); assay type: functional; conditions: read-out: IC50_Mean;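 further: Wnt-LIGHT reporter cells stimulated with conditioned medium from Wnt3a-producing cells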
Sequence of Protein Wnt-3a (P27467 whole entry): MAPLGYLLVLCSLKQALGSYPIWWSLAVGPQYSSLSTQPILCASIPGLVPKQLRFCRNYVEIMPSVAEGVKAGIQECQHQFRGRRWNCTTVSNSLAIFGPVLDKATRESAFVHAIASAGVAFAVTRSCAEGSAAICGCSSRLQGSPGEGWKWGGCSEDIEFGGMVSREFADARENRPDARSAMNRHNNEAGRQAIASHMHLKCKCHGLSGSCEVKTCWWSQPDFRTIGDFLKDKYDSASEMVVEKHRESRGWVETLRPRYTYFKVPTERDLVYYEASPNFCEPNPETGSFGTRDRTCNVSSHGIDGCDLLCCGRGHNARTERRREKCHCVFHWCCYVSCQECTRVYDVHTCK

[3] = intracellular Trypanosoma cruzi inhibitors in host cells – cell-based, plate reader, cherry-pick samples, set 3, dose response (AID 651818); assay type: functional;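 further: compounds incubated with infected cells for about four days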
[4] = target: T1, Lysine-specific demethylase 4C (Homo sapiens, UniProt Q9H3R0); assay: inhibition of JMJD2C H3K9me3 demethylation – biochemical, DELFIA europium, cherry-picked samples, dose response (AID 488835); assay type: functional
T1 sequence (Q9H3R0 whole entry): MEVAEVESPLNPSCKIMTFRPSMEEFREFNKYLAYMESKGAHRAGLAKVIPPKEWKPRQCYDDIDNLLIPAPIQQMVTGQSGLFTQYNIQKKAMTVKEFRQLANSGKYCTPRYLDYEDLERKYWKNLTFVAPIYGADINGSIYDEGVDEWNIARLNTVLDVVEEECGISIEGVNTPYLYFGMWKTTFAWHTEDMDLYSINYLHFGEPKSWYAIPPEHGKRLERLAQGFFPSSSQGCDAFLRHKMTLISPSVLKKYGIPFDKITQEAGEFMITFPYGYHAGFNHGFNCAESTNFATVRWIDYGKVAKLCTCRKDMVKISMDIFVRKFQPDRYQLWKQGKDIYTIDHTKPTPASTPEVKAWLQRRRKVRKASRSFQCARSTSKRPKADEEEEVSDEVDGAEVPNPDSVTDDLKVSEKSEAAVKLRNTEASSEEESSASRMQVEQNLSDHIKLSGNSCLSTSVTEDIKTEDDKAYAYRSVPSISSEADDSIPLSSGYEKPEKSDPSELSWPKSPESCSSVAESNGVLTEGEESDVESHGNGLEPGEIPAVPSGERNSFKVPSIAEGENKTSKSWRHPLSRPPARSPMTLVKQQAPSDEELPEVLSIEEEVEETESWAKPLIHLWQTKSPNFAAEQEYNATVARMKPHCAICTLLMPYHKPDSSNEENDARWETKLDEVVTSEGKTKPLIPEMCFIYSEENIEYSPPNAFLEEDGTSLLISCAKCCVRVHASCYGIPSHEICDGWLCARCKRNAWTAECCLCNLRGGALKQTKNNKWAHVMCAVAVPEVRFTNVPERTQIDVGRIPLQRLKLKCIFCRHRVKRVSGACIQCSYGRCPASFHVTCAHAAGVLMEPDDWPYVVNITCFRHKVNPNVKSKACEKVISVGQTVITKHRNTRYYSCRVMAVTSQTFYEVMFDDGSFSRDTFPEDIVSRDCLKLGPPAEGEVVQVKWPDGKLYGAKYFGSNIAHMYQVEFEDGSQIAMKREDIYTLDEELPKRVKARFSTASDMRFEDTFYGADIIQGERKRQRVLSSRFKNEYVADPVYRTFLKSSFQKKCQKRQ

[5] = system: HT-1080; assay: HT1080 cell viability loss – fluorescence readout (AID 620); assay type: functional, cell-based; conditions: Homo sapiens
[6] = target: Luciferin 4-monooxygenase (Photinus pyralis, UniProt P08659); assay: Counter Screen for Luciferase-based Assay Positives. [Related pubchem assays: 620, 618, 411 ]
Sequence of Luciferin 4-monooxygenase (P08659 whole entry): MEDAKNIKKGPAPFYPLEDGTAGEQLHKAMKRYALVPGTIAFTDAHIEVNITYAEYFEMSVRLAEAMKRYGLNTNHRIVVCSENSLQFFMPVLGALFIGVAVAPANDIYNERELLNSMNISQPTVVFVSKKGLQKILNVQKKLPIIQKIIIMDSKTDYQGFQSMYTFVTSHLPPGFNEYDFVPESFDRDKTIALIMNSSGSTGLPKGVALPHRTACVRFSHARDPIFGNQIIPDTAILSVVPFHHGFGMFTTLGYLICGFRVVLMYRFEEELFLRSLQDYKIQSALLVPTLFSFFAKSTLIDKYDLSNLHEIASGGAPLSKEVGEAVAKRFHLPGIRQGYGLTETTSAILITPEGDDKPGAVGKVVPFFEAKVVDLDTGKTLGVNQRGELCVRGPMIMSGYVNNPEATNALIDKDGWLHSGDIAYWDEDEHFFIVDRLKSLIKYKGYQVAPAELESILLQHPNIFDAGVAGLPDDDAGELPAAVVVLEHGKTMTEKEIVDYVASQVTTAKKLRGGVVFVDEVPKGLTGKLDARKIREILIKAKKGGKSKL

[7] = target: T2, Microphthalmia-associated transcription factor (Homo sapiens, UniProt O75030); assay: reducers of TRPM1 reporter luminescence, concentration series – cell-based, SK-MEL-5, cherry-picked, set 3, MITF inhibitor project, dose response (AID 493073); assay type: functional;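 further: SK-MEL-5 melanoma cells with luciferase driven by the MITF target TRPM1 promoter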
T2 sequence (O75030 whole entry): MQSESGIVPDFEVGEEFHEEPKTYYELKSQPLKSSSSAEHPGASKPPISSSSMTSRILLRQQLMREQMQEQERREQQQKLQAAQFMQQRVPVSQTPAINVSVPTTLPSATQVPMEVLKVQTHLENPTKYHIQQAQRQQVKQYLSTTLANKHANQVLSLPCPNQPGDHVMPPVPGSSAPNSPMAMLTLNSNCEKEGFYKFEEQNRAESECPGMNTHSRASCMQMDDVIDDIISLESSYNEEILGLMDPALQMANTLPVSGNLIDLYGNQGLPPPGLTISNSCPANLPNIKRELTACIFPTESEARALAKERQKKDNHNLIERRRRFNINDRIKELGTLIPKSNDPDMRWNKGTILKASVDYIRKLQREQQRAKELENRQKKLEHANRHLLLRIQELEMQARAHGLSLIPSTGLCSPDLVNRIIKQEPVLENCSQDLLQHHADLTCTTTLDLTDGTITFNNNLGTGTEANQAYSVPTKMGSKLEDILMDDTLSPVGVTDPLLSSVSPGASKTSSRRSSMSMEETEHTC

[8] = target: DNA dC->dU-editing enzyme APOBEC-3G (Homo sapiens, UniProt Q9HC16); assay: inhibition of APOBEC3G ssDNA deamination – biochemical, fluorescence, single-stranded DNA substrate, SAR follow-up (AID 602136); assay type: functional; conditions: read-out: IC50_Mean
Sequence of DNA dC->dU-editing enzyme APOBEC-3G (Q9HC16 whole entry): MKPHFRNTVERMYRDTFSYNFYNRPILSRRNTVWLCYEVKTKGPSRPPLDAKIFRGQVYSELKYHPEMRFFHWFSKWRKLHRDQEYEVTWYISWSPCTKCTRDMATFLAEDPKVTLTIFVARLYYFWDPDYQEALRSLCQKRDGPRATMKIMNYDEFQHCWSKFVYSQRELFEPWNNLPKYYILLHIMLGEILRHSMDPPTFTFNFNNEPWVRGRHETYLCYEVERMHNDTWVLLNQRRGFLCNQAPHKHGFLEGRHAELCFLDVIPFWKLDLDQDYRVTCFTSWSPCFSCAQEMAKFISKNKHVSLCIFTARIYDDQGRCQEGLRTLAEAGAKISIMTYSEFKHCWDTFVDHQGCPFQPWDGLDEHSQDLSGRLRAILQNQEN

[9] = target: DNA dC->dU-editing enzyme APOBEC-3A (Homo sapiens, UniProt P31941); assay: SAR analysis of small molecule inhibitors of APOBEC3A DNA Deaminase via a fluorescence-based single-stranded DNA deaminase assay.; assay type: functional; conditions: read-out: IC50_Mean
Sequence of DNA dC->dU-editing enzyme APOBEC-3A (P31941 whole entry): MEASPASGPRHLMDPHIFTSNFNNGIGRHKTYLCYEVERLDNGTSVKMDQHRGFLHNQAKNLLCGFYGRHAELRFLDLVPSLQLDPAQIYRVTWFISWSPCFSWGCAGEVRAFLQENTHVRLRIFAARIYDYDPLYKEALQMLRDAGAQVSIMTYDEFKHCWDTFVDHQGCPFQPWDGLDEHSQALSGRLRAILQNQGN

[10] = target: T3, Endoribonuclease toxin MazF (Escherichia coli K-12, UniProt P0AE70); assay: activation of MazEF endoribonuclease cleavage – biochemical, fluorescence, single-stranded RNA substrate, uHTS hits, dose response (AID 588481); assay type: functional
T3 sequence (P0AE70 whole entry): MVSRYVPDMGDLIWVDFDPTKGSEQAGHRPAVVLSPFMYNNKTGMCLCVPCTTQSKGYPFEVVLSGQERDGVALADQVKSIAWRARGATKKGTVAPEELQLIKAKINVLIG

[11] = target: T3, Endoribonuclease toxin MazF; assay: substrate-only fluorescence increase artefacts – biochemical, single-stranded RNase substrate, counter-screen for MazEF activator project, dose response (AID 588502); assay type: functional
[12] = target: Cytochrome P450 3A4 (Homo sapiens, UniProt P08684); conditions: Potency;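 further: confirmatory qHTS run detecting inhibitors and substrates of CYP3A4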
Sequence of Cytochrome P450 3A4 (P08684 whole entry): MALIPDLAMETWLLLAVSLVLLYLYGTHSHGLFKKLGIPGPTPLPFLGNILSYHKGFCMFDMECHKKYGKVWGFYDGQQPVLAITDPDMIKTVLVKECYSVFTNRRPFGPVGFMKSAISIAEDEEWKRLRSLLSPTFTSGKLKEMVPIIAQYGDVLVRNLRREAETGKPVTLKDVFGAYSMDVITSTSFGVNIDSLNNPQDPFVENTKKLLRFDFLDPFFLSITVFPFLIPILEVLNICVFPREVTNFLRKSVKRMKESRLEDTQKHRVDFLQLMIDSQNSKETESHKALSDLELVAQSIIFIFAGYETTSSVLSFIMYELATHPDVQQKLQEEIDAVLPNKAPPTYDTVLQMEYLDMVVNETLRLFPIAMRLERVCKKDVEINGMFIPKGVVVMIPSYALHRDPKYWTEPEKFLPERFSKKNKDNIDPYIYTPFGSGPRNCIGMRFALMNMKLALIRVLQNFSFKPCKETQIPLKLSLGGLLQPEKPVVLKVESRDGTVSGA

For `CC(C)N=C=NC(C)C`, the AC50 [1] was 35.5 µM (inconclusive).
For `FC(F)Oc1ccc(-c2cn3c([n+]2-c2ccccc2)CCCCC3)cc1`, the IC50 [2] was 3.83 µM (active).
With `CC(=O)Nc1ccc(S(=O)(=O)N(Cc2ccccc2)C(C)C)cc1` the IC50 [2] was 22.1 µM (inactive).
For `Cc1ccc(S(=O)(=O)N(C)C[C@H]2Oc3ccc(NS(=O)(=O)c4cccs4)cc3CC(=O)N([C@H](C)CO)C[C@H]2C)cc1`, the AC50 [3] was 2.05 µM (active).
With `Cc1ccc(-c2csc3nc4cc(C(=O)NC5CCC(O)CC5)ccc4c(=O)n23)cc1` (stereo unspecified) the AC50 [4] was 3.96 µM (active).
For `CCc1ccc(-c2cc(C(=O)Nn3cnnc3)c3ccccc3n2)cc1`, the EC50 [5] was > 50 µM (not active), the EC50 [6] was 2.73 µM (active) and the AC50 [7] was 12.5 µM (active).
In the case of `COc1ccc(S(=O)(=O)Nc2cccc3c2O[C@H](CN(C)Cc2ccc(C(=O)Nc4ccccc4N)cc2)[C@@H](C)CN([C@H](C)CO)C3=O)cc1`, the AC50 [3] is reported as 4.11 µM (active).
In the case of `CCc1ccc(Nc2nc(Nc3cccc(OC)c3)nc(N3CCOCC3)n2)cc1`, the IC50 [8] is reported as 47.7 µM (inactive) and the IC50 [9] is reported as > 99 µM (inactive).
In the case of `CCC(C)C(N)C1=NC(C(=O)N[C@@H](CC(C)C)C(=O)N[C@H](CCC(=O)O)C(=O)N[C@H](C(=O)N[C@H]2CCCCNC(=O)[C@H](CC(N)=O)NC(=O)[C@@H](CC(=O)O)NC(=O)[C@H](Cc3c[nH]cn3)NC(=O)[C@@H](Cc3ccccc3)NC(=O)[C@H]([C@@H](C)CC)NC(=O)[C@@H](CCCN)NC2=O)[C@@H](C)CC)CS1` (stereo partly specified) (X1-L[dE]IK[dOrn]I[dF]H[dD]N; lactam 4-C), the EC50 [10] is reported as 30.8 µM (inactive) and the EC50 [11] is reported as 4.71 µM (active).
With `O=C(NCc1ccccn1)c1cn(Cc2ccccc2)nn1` the AC50 [4] was > 60 µM (inactive).
For `CCCN(CCC)c1c([N+](=O)[O-])cc(C(F)(F)F)cc1[N+](=O)[O-]` [TRIFLURALIN], the AC50 [1] was 14.1 µM (inconclusive) and the AC50 [12] was 15.8 µM (inconclusive).
